Columns and labels:
human NK1 receptor = human NK1 receptor (Homo sapiens, UniProt P25103); experiment: NK1 receptor affinity, [3H]substance P displacement in CHO cell membranes; format: binding; settings: human NK1 receptor in CHO cells, [3H]substance P 0.6 nM
Protocol: The affinity of test compounds for the NK1 receptor was evaluated at human NK1 receptors in CHO cells infected with the human NK1 receptor (using the Semliki virus expression system) and radiolabelled with [^3H]substance P (final concentration 0.6 nM). Binding assays were performed in HEPES buffer (50 mM, pH 7.4) containing BSA (0.04%) leupeptin (16.8 μg/ml), MnCl2 (3 mM) and phosphoramidon (2 μM). Binding assays consisted of 250 μl of membrane suspension (approximately 1.5 μg/well in a 96 well plate), […] of buffer of displacing agent and 125 μl of [^3H]substance P. Displacement curves were determined with at least seven concentrations of the compound. The assay tubes were incubated for 60 min at room temperature after which time the tube contents were rapidly filtered under vacuum through GF/C filters presoaked for 60 min with PEI (0.3%) with 3×1 ml washes of HEPES buffer (50 mM, pH 7.4). The radioactivity retained on the filters was measured by scintillation counting. All assays were performed in duplicate in at least 2 separate experiments. NK3

[1] = target: T1, human NK3 (hNK3) receptor (Homo sapiens, UniProt P29371); experiment: Recombinant hNK3 receptor affinity, [3H]SR142801 displacement; format: binding; settings: recombinant hNK3 membranes, [3H]SR142801 0.3 nM
T1 construct: expressed in transfected cells
T1 sequence (P29371 1-465): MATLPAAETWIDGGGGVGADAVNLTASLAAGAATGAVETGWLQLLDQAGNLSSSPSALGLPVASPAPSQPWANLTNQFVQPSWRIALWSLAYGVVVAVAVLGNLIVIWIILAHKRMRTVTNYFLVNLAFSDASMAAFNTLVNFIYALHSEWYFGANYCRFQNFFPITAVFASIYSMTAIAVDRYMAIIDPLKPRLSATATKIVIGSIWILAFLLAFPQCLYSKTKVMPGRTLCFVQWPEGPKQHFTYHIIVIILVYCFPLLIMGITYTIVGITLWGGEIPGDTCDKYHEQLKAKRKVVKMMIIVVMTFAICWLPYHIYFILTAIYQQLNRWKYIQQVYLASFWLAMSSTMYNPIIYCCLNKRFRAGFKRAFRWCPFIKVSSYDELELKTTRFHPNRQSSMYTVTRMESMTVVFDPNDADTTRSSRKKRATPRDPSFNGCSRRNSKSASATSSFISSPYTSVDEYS
Protocol: Recombinant human NK3 (hNK3) receptor affinity was determined in a 96 well plate assay, using [^3H]SR142801 (final concentration 0.3 nM) to radiolabel the hNK3 receptor in the presence of 10 concentrations of competing compound or buffer. Non specific binding was determined using 10 μM SB222200. Assay buffer consisted of Tris-HCl (50 mM, pH 7.4), BSA (0.1%), MnCl2 (4 mM) and phosphoramidon (1 μM). Membrane preparations of hNK3 receptors (approximately 2.5 μg/well in a 96 well plate) were used to initiate the incubation for 90 min at room temperature. This assay was terminated by rapid filtration under vacuum through GF/C filters, presoaked for 90 min with PEI (0.3%), with 3×0.5 ml washes of ice-cold Tris buffer (50 mM, pH 7.4) containing 0.1% BSA. The radioactivity retained on the filters was measured by scintillation counting. All assays were performed in duplicate in at least two separate experiments.

[2] = phase II trial, cited from earlier work

human NK1 receptor, sequence (P25103 whole entry): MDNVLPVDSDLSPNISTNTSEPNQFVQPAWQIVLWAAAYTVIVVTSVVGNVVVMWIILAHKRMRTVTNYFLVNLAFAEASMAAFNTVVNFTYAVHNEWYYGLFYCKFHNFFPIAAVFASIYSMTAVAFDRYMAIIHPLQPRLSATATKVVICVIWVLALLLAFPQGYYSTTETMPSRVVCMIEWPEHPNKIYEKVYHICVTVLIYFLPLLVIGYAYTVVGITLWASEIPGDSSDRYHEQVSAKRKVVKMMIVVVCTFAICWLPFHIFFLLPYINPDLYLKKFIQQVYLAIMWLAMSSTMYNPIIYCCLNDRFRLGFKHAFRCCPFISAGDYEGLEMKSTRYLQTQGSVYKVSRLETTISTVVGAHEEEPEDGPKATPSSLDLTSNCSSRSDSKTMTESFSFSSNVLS

Ki (human NK1 receptor) [nM]	Ki [1] [nM]	SMILES	activity on positive symptoms of schizophrenia ([2]; altered behaviour, delusion, hallucinations, extreme emotions, excited motor activity, incoherent speech)	activity in the treatment of negative symptoms of schizophrenia ([2]; depression, anhedonia, social isolation, memory and attention deficits)
2.06	155	CN(C(=O)C(C)(C)c1cc(C(F)(F)F)cc(C(F)(F)F)c1)[C@@H]1CN(C(=O)N2CCN(S(C)(=O)=O)CC2)C[C@H]1c1ccc(F)cc1 (racemic) [Example 15, rac-2-(3,5-Bis-trifluoromethyl-phenyl)-N-[(3S,4R)-4-(4-fluoro-phenyl)-1-(4-methanesulfonyl-piperazine-1-carbonyl)-pyrrolidin-3-yl]-N-methyl-isobutyramide]	–	–
0.341	276	Cc1cc(F)ccc1[C@@H]1CN(C(=O)N2CCOCC2)C[C@H]1N(C)C(=O)C(C)(C)c1cc(C(F)(F)F)cc(C(F)(F)F)c1 (racemic) [Example 27, rac-2-(3,5-Bis-trifluoromethyl-phenyl)-N-[(3S,4R)-4-(4-fluoro-2-methyl-phenyl)-1-(morpholine-4-carbonyl)-pyrrolidin-3-yl]-N-methyl-isobutyramide]	–	–
0.689	137	Cc1cc(F)ccc1[C@@H]1CN(C(=O)N2CCN(S(C)(=O)=O)CC2)C[C@H]1N(C)C(=O)C(C)(C)c1cc(C(F)(F)F)cc(C(F)(F)F)c1 (racemic) [Example 28, rac-2-(3,5-Bis-trifluoromethyl-phenyl)-N-[(3S,4R)-4-(4-fluoro-2-methyl-phenyl)-1-(4-methanesulfonyl-piperazine-1-carbonyl)-pyrrolidin-3-yl]-N-methyl-isobutyramide]	–	–
2.35	457	CN(C(=O)C(C)(C)c1cc(C(F)(F)F)cc(C(F)(F)F)c1)[C@@H]1CN(C(=O)N2CCOCC2)C[C@H]1c1ccc(Cl)cc1 (racemic) [Example 2, rac-2-(3,5-Bis-trifluoromethyl-phenyl)-N-[(3S,4R)-4-(4-chloro-phenyl)-1-(morpholine-4-carbonyl)-pyrrolidin-3-yl]-N-methyl-isobutyramide]	–	–
0.634	212	CN(C(=O)C(C)(C)c1cc(C(F)(F)F)cc(C(F)(F)F)c1)[C@@H]1CN(C(=O)NCCO)C[C@H]1c1ccc(F)cc1 (racemic) [Example 26, rac-(3S,4R)-3-{[2-(3,5-Bis-trifluoromethyl-phenyl)-2-methyl-propionyl]-methyl-amino}-4-(4-fluoro-phenyl)-pyrrolidine-1-carboxylic acid (2-hydroxy-ethyl)-amide]	–	–
1.12	92.4	CN(C(=O)C(C)(C)c1cc(Cl)cc(Cl)c1)[C@@H]1CN(C(=O)N2CCN(S(C)(=O)=O)CC2)C[C@H]1c1ccc(F)cc1 (racemic) [Example 23, rac-2-(3,5-Dichloro-phenyl)-N-[(3S,4R)-4-(4-fluoro-phenyl)-1-(4-methanesulfonyl-piperazine-1-carbonyl)-pyrrolidin-3-yl]-N-methyl-isobutyramide]	–	–
1.08	204	CN(C(=O)C(C)(C)c1cc(C(F)(F)F)cc(C(F)(F)F)c1)[C@@H]1CN(C(=O)N(CCO)CCO)C[C@H]1c1ccc(F)cc1 (racemic) [Example 21, rac-(3S,4R)-3-{[2-(3,5-Bis-trifluoromethyl-phenyl)-2-methyl-propionyl]-methyl-amino}-4-(4-fluoro-phenyl)-pyrrolidine-1-carboxylic acid bis-(2-hydroxy-ethyl)-amide]	–	–
–	–	CC(=O)N(C)C1(c2ccccc2)CCN(CCC[C@]2(c3ccc(Cl)c(Cl)c3)CCCN(C(=O)c3ccccc3)C2)CC1 [SR 142,801, Osanetant]	active	inactive
1.41	309	CC(=O)N1CCN(C(=O)N2C[C@@H](N(C)C(=O)C(C)(C)c3cc(C(F)(F)F)cc(C(F)(F)F)c3)[C@H](c3ccc(F)cc3)C2)CC1 (racemic) [Example 16, rac-N-[(3S,4R)-1-(4-Acetyl-piperazine-1-carbonyl)-4-(4-fluoro-phenyl)-pyrrolidin-3-yl]-2-(3,5-bis-trifluoromethyl-phenyl)-N-methyl-isobutyramide]	–	–
3.16	30	CN(C(=O)C(C)(C)c1cc(Cl)cc(Cl)c1)[C@@H]1CN(C(=O)N2CCN(S(C)(=O)=O)CC2)C[C@H]1c1ccc(Cl)cc1 (racemic) [Example 55, rac-N-[(3S,4R)-4-(4-Chloro-phenyl)-1-(4-methanesulfonyl-piperazine-1-carbonyl)-pyrrolidin-3-yl]-2-(3,5-dichloro-phenyl)-N-methyl-isobutyramide]	–	–
1.92	200	CN(C(=O)C(C)(C)c1cc(Cl)cc(Cl)c1)[C@@H]1CN(C(=O)N2CCOCC2)C[C@H]1c1ccc(F)cc1 (racemic) [Example 24, rac-2-(3,5-Dichloro-phenyl)-N-[(3S,4R)-4-(4-fluoro-phenyl)-1-(morpholine-4-carbonyl)-pyrrolidin-3-yl]-N-methyl-isobutyramide]	–	–
0.875	203	CN(C(=O)C(C)(C)c1cc(C(F)(F)F)cc(C(F)(F)F)c1)[C@@H]1CN(C(=O)N2CCN(S(C)(=O)=O)CC2)C[C@H]1c1ccccc1 (racemic) [Example 22, rac-2-(3,5-Bis-trifluoromethyl-phenyl)-N-[(3S,4R)-1-(4-methanesulfonyl-piperazine-1-carbonyl)-4-phenyl-pyrrolidin-3-yl]-N-methyl-isobutyramide]	–	–

From patent US7893062B2, “Pyrrolidine derivatives as dual NK1/NK3 receptor antagonists” (Hoffmann-La Roche Inc., priority 2007, dated 2011)
